Results reported in paper PMC2858655, “Structural and Functional Characterization of Human Peripheral Nervous System Myelin Protein P2” (PLoS ONE, 2010).

How the values were obtained:
[1] = molecular target: T1, His-tagged P2 protein (His-P2) (Homo sapiens, UniProt P02689); assay: intrinsic Trp fluorescence quenching; assay type: binding; settings: 9.4 µM protein, 10 µM cholesterol, 1% ethanol, HEPES, 150 mM NaCl, pH 7.5, 120 min, room temperature, excitation 280 nm
T1 construct: gene PMP2; full length, N-terminal His6 tag with TEV site kept (pTH27), E. coli Rosetta(DE3)

[2] = molecular target: T2, human myelin P2 protein (untagged) (Homo sapiens, UniProt P02689); assay: X-ray crystallography, […] Å; assay type: binding; settings: fatty acid carried over from E. coli, identity modelled from electron density; inside barrel cavity; pH 8.5
T2 construct: gene PMP2

| decrease of fluorescence intensity [1] | SMILES | X-ray crystallography, 1.85 Å [2] |
| --- | --- | --- |
| ~ 25% | CC(C)CCC[C@@H](C)[C@H]1CC[C@H]2[C@@H]3CC=C4C[C@@H](O)CC[C@]4(C)[C@H]3CC[C@]12C [cholesterol] |  |
|  | CCCCCCCCCCCCCCCC(=O)O [palmitate] | a palmitate molecule, well-defined in the electron density (Figure 2B,4A), was modeled into the lipid-binding cavity |
